This experiment deals with T1, BRD4 proteins (Homo sapiens, UniProt O60885).
T1 construct: endogenous in cells; host or cells: MM.1S
Nature of the experiment: Degradation of BRD4 protein in MM.1S cell lines (Western blot densitometry). It counts as cell-based. As to conditions: MM.1S cells, 10 μM, 24 hours. On the procedure:
To confirm that the compounds (BRD4 degraders) of Preparation Examples I′ to IV′ reduce the amount of BRD4 proteins, experiments were performed using MM.1S cell lines, which are B cells derived from the blood of multiple myeloma patients.
Specifically, the MM.1S cells were cultured in RPMI-1640 medium supplemented with 10% fetal bovine serum and Penicillin/Streptomycin (100 U/mL), transferred to a 6-well plate, and after 24 hours, the BRD4 degraders were diluted in the culture medium and the cells were treated with 10 μM each. After treatment, the cells were incubated in a C02 incubator for 24 hours. Through protein immunoblotting (Western Blot), the degrading capacity of each compound against BRD4 proteins in cells was confirmed. After cell culture was completed according to the experimental conditions, the cells were collected and centrifuged at 1,800 rpm for 3 minutes. The cells in the precipitate were lysed with RIPA (25 mM Tris-HCl pH 7.6, 150 mM NaCl, 1% NP-40, 1% sodium deoxycholate, 0.1% SDS, 1× Protease Inhibitor Cocktail), 5× sample buffer was added, and then heated at 100° C. for 15 minutes. The prepared sample was electrophoresed with sodium dodecyl sulfate poly acrylamide gel electrophoresis (SDS-PAGE), and then the proteins in the gel were transferred to a PVDF membrane using Trans-Blot Turbo. The membrane was treated with a 5% bovine serum albumin (BSA) solution and blocked at room temperature for 2 hours, and then BRD4 and R-actin antibodies were diluted in the 5% BSA solution to react with the membrane at 4° C. overnight. After washed with PBST (0.5% Tween20) 5 times, horse radish peroxidase (HRP)-conjugated secondary antibodies were diluted in PBST to react at room temperature for 2 hours, and then washed again with a PBST solution 5 times. After enzyme-substrate reaction was carried out using a HRP substrate, a signal was measured with chemi-doc equipment, and the densitometry of a band corresponding to the BRD4 protein detected in the Preparation Example Compounds was quantitatively analyzed. The case when the degrading capacity of each BRD4 degrader was reduced by less than 40% is indicated as +, the case when the degrading capacity was reduced by 40% to 70% (exclusive of 70) is indicated as ++, the case when the degrading capacity was reduced by 70% or more is indicated as +++ in Tables 16 to 19 below. As shown in the following Tables, it was confirmed that the compounds of Preparation Examples I′ to IV′ according to the present invention have excellent degrading capacity.
On the technique in general: Immunoblotting shows a protein as a band on a membrane.

Structures are written as SMILES.

For `Cc1sc2c(c1C)C(c1ccc(Cl)cc1)=N[C@@H](CC(=O)Nc1ccc(C#CCN)cc1)c1nnc(C)n1-2.Cl` [1-1′, (S)—N-(4-(3-aminoprop-1-yn-1-yl)phenyl)-2-(4-(4-chlorophenyl)-2,3,9-trimethyl-6H-thieno[3,2-f][1,2,4]triazolo[4,3-a][1,4]diazepin-6-yl)acetamide hydrochloride], the “BRD4 degrading capacity (%)” value was “++ (the degrading capacity was reduced by 40% to 70% (exclusive of 70))”.

Turning to `Cc1sc2c(c1C)C(c1ccc(Cl)cc1)=N[C@@H](CC(=O)Nc1cccc(C#CCN)c1)c1nnc(C)n1-2.Cl` [1-3′, (S)—N-(3-(3-aminoprop-1-yn-1-yl)phenyl)-2-(4-(4-chlorophenyl)-2,3,9-trimethyl-6H-thieno[3,2-f][1,2,4]triazolo[4,3-a][1,4]diazepin-6-yl)acetamide hydrochloride], the “BRD4 degrading capacity (%)” value is on record as “++ (the degrading capacity was reduced by 40% to 70% (exclusive of 70))”.

For `COC(=O)c1cc(NC(=O)C[C@@H]2N=C(c3ccc(Cl)cc3)c3c(sc(C)c3C)-n3c(C)nnc32)ccc1C#CCN.Cl` [3-1′, methyl (S)-2-(3-aminoprop-1-yn-1-yl)-5-(2-(4-(4-chlorophenyl)-2,3,9-trimethyl-6H-thieno[3,2-f][1,2,4]triazolo[4,3-a][1,4]diazepin-6-yl)acetamido)benzoate hydrochloride], the “BRD4 degrading capacity (%)” value is “+++ (the degrading capacity was reduced by 70% or more)”.

Take `Cc1sc2c(c1C)C(c1ccc(Cl)cc1)=N[C@@H](CC(=O)Nc1ccc(C#CCN)c(C(=O)O)c1)c1nnc(C)n1-2.Cl` [3-2′, (S)-2-(3-aminoprop-1-yn-1-yl)-5-(2-(4-(4-chlorophenyl)-2,3,9-trimethyl-6H-thieno[3,2-f][1,2,4]triazolo[4,3-a][1,4]diazepin-6-yl)acetamido)benzoic acid hydrochloride]: the “BRD4 degrading capacity (%)” value is “++ (the degrading capacity was reduced by 40% to 70% (exclusive of 70))”.

For the compound `Cc1sc2c(c1C)C(c1ccc(Cl)cc1)=N[C@@H](CC(=O)Nc1ccc(C#CCN)c(CO)c1)c1nnc(C)n1-2.Cl` [3-3′, (S)—N-(4-(3-aminoprop-1-yn-1-yl)-3-(hydroxymethyl)phenyl)-2-(4-(4-chlorophenyl)-2,3,9-trimethyl-6H-thieno[3,2-f][1,2,4]triazolo[4,3-a][1,4]diazepin-6-yl)acetamide hydrochloride], the “BRD4 degrading capacity (%)” value is reported as “+++ (the degrading capacity was reduced by 70% or more)”.

Regarding `Cc1sc2c(c1C)C(c1ccc(Cl)cc1)=N[C@@H](CC(=O)Nc1ccc(C#CCN)c(COP(=O)(O)O)c1)c1nnc(C)n1-2` [3-8′, (S)-2-(3-aminoprop-1-yn-1-yl)-5-(2-(4-(4-chlorophenyl)-2,3,9-trimethyl-6H-thieno[3,2-f][1,2,4]triazolo[4,3-a][1,4]diazepin-6-yl)acetamido)benzyl dihydrogen phosphate trifluoroacetic acid], the “BRD4 degrading capacity (%)” value is given as “+ (the degrading capacity of each BRD4 degrader was reduced by less than 40%)”.

For the compound `COC(=O)c1ccc(NC(=O)C[C@@H]2N=C(c3ccc(Cl)cc3)c3c(sc(C)c3C)-n3c(C)nnc32)cc1C#CCN.Cl` [3-25′, methyl (S)-2-(3-aminoprop-1-yn-1-yl)-4-(2-(4-(4-chlorophenyl)-2,3,9-trimethyl-6H-thieno[3,2-f][1,2,4]triazolo[4,3-a][1,4]diazepin-6-yl)acetamido)benzoate hydrochloride], the “BRD4 degrading capacity (%)” value is “+++ (the degrading capacity was reduced by 70% or more)”.

Turning to `Cc1sc2c(c1C)C(c1ccc(Cl)cc1)=N[C@@H](CC(=O)Nc1ccc(C(=O)O)c(C#CCN)c1)c1nnc(C)n1-2.Cl` [3-26′, (S)-2-(3-aminoprop-1-yn-1-yl)-4-(2-(4-(4-chlorophenyl)-2,3,9-trimethyl-6H-thieno[3,2-f][1,2,4]triazolo[4,3-a][1,4]diazepin-6-yl)acetamido)benzoic acid hydrochloride], the “BRD4 degrading capacity (%)” value was “++ (the degrading capacity was reduced by 40% to 70% (exclusive of 70))”.

As for `Cc1sc2c(c1C)C(c1ccc(Cl)cc1)=N[C@@H](CC(=O)Nc1ccc(CO)c(C#CCN)c1)c1nnc(C)n1-2.Cl` [3-27′, (S)—N-(3-(3-aminoprop-1-yn-1-yl)-4-(hydroxymethyl)phenyl)-2-(4-(4-chlorophenyl)-2,3,9-trimethyl-6H-thieno[3,2-f][1,2,4]triazolo[4,3-a][1,4]diazepin-6-yl)acetamide hydrochloride], the “BRD4 degrading capacity (%)” value was “++ (the degrading capacity was reduced by 40% to 70% (exclusive of 70))”.

Consider `Cc1sc2c(c1C)C(c1ccc(Cl)cc1)=N[C@@H](CC(=O)Nc1ccc(C#CC(N)CO)cc1)c1nnc(C)n1-2.Cl` (stereo partly drawn) [3-49′, N-(4-(3-amino-4-hydroxybut-1-yn-1-yl)phenyl)-2-((S)-4-(4-chlorophenyl)-2,3,9-trimethyl-6H-thieno[3,2-f][1,2,4]triazolo[4,3-a][1,4]diazepin-6-yl)acetamide hydrochloride], for which the “BRD4 degrading capacity (%)” value is “++ (the degrading capacity was reduced by 40% to 70% (exclusive of 70))”.

Turning to `Cc1sc2c(c1C)C(c1ccc(Cl)cc1)=N[C@@H](CC(=O)Nc1cccc(C#CC(N)CO)c1)c1nnc(C)n1-2.Cl` (stereo partly drawn) [3-51′, N-(3-(3-amino-4-hydroxybut-1-yn-1-yl)phenyl)-2-((S)-4-(4-chlorophenyl)-2,3,9-trimethyl-6H-thieno[3,2-f][1,2,4]triazolo[4,3-a][1,4]diazepin-6-yl)acetamide hydrochloride], the “BRD4 degrading capacity (%)” value is “+++ (the degrading capacity was reduced by 70% or more)”.

For the compound `Cc1sc2c(c1C)C(c1ccc(Cl)cc1)=N[C@@H](CC(=O)Nc1ccc(C#CC(N)COP(=O)(O)O)cc1)c1nnc(C)n1-2` (stereo partly drawn) [3-57′, 2-amino-4-(4-(2-((S)-4-(4-chlorophenyl)-2,3,9-trimethyl-6H-thieno[3,2-f][1,2,4]triazolo[4,3-a][1,4]diazepin-6-yl)acetamido)phenyl)but-3-yn-1-yl dihydrogen phosphate trifluoroacetic acid], the “BRD4 degrading capacity (%)” value is reported as “++ (the degrading capacity was reduced by 40% to 70% (exclusive of 70))”.

Regarding `Cc1sc2c(c1C)C(c1ccc(Cl)cc1)=N[C@@H](CC(=O)NCC#Cc1ccc(C#CCN)o1)c1nnc(C)n1-2.Cl` [4-1′, (S)—N-(3-(5-(3-aminoprop-1-yn-1-yl)furan-2-yl)prop-2-yn-1-yl)-2-(4-(4-chlorophenyl)-2,3,9-trimethyl-6H-thieno[3,2-f][1,2,4]triazolo[4,3-a][1,4]diazepin-6-yl)acetamide hydrochloride], the “BRD4 degrading capacity (%)” value is listed as “++ (the degrading capacity was reduced by 40% to 70% (exclusive of 70))”.

Take `COC(=O)c1cc(N2CCN(C(=O)C[C@@H]3N=C(c4ccc(Cl)cc4)c4c(sc(C)c4C)-n4c(C)nnc43)CC2)ccc1C#CCN.Cl` [4-2′, methyl (S)-2-(3-aminoprop-1-yn-1-yl)-5-(4-(2-(4-(4-chlorophenyl)-2,3,9-trimethyl-6H-thieno[3,2-f][1,2,4]triazolo[4,3-a][1,4]diazepin-6-yl)acetyl)piperazin-1-yl)benzoate hydrochloride]: the “BRD4 degrading capacity (%)” value is recorded as “+++ (the degrading capacity was reduced by 70% or more)”.

With `Cc1sc2c(c1C)C(c1ccc(Cl)cc1)=N[C@@H](CC(=O)NCC#Cc1ccc(C#CCN)s1)c1nnc(C)n1-2.Cl` [4-10′, (S)—N-(3-(5-(3-aminoprop-1-yn-1-yl)thiophen-2-yl)prop-2-yn-1-yl)-2-(4-(4-chlorophenyl)-2,3,9-trimethyl-6H-thieno[3,2-f][1,2,4]triazolo[4,3-a][1,4]diazepin-6-yl)acetamide hydrochloride], the “BRD4 degrading capacity (%)” value was “+++ (the degrading capacity was reduced by 70% or more)”.

On to `Cc1sc2c(c1C)C(c1ccc(Cl)cc1)=N[C@@H](CC(=O)NCCC(=O)Nc1ccc(C#CCN)cc1)c1nnc(C)n1-2.Cl` [4-124′, (S)—N-(4-(3-aminoprop-1-yn-1-yl)phenyl)-3-(2-(4-(4-chlorophenyl)-2,3,9-trimethyl-6H-thieno[3,2-f][1,2,4]triazolo[4,3-a][1,4]diazepin-6-yl)acetamido)propanamide hydrochloride], for which the “BRD4 degrading capacity (%)” value is “+++ (the degrading capacity was reduced by 70% or more)”.

On to `Cc1sc2c(c1C)C(c1ccc(Cl)cc1)=N[C@@H](CC(=O)NCCC(=O)Nc1ccc(C#CCN)c(CO)c1)c1nnc(C)n1-2.Cl` [4-125′, (S)—N-(4-(3-aminoprop-1-yn-1-yl)-3-(hydroxymethyl)phenyl)-3-(2-(4-(4-chlorophenyl)-2,3,9-trimethyl-6H-thieno[3,2-f][1,2,4]triazolo[4,3-a][1,4]diazepin-6-yl)acetamido)propanamide hydrochloride], for which the “BRD4 degrading capacity (%)” value is listed as “+++ (the degrading capacity was reduced by 70% or more)”.

Source of the values: patent publication US20240425517A1, “NOVEL COMPOUND FOR DEGRADATION OF TARGET PROTEIN OR POLYPEPTIDE BY POLYUBIQUITINATION” (PRAZER THERAPEUTICS INC., priority 2021, published 2024).
